Experimental data taken from patent US20230089867A1, “CYCLIC PENTAMER COMPOUNDS AS PROPROTEIN CONVERTASE SUBTILISIN/KEXIN TYPE 9 (PCSK9) INHIBITORS FOR THE TREATMENT OF METABOLIC DISORDER” (Novartis AG, priority 2018, published 2023).

Biological target: human PCSK9 (Homo sapiens, UniProt Q8NBP7)
Assay: PCSK9 ligand binding TR-FRET assay (interference with binding of human PCSK9 to human LDLR)
Conditions: for Max % inhibition: PCSK9 FRET assay, efficacy (Amax), 100% = 1 uM unlabeled human PCSK9, 0% = DMSO; for IC50: TR-FRET, human PCSK9 Alexa Fluor 647 / human LDLR extracellular domain-Europium Kryptate, read-out: PCSK9 FRET Assay IC50
How it was run: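 Threefold compound dilutions were pre-incubated 30 min with PCSK9, after which 4 nM Europium Kryptate-tagged human LDLR ectodomain was added for a further 2 h.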

Sequence of human PCSK9 (Q8NBP7 153-692): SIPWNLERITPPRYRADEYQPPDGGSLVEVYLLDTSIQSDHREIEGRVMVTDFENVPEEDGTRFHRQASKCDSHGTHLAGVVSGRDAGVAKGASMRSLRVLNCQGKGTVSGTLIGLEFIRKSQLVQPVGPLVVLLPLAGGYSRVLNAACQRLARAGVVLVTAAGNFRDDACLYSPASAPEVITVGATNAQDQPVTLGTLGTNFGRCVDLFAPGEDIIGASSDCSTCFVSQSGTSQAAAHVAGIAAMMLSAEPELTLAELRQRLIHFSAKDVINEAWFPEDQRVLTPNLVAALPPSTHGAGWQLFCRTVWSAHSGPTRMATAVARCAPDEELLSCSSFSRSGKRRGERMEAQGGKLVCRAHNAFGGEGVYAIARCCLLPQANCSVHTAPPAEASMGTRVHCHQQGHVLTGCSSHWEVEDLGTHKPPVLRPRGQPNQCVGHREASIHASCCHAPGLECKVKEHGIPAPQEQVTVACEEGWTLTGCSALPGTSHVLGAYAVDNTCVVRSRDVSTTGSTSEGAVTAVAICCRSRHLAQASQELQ
Sequence of human PCSK9 (Q8NBP7 31-152 partner limits assumed): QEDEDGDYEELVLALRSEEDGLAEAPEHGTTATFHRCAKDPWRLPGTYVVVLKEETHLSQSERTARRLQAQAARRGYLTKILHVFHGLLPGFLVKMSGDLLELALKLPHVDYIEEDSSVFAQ

Structure (SMILES)	Max % inhibition [%]	IC50 [nM]
COC[C@@H]1NC(=O)[C@H](COC)N(Cc2ccc(Cl)cc2Oc2ccc(-c3cnc(CN(C)C)n3C)cc2)C(=O)C[C@@H](Cc2ccccc2)C(=O)N(C)[C@H]2CCCC[C@@H]2NC(=O)C[C@H](Cc2ccc(Cl)cc2)N(C)C1=O [Compound 234, (4S,7S,10S,14R,16aS,20aS)-14-benzyl-11-(4-chloro-2-(4-(2-((dimethylamino)methyl)-1-methyl-1H-imidazol-5-yl)phenoxy)benzyl)-4-(4-chlorobenzyl)-7,10-bis(methoxymethyl)-5,16-dimethylhexadecahydrobenzo[l][1,4,7,11,14]pentaazacyclooctadecine-2,6,9,12,15(3H)-pentaone]	100.63	0.8
COC[C@@H]1NC(=O)[C@H](C)N(Cc2ccc(Cl)cc2Oc2ccc(-c3cnc(CN(C)C)n3C)cc2)C(=O)C[C@@H](Cc2ccccc2)C(=O)N(C)[C@@H](CO)CNC(=O)C[C@H](Cc2ccc(Cl)cc2)N(C)C1=O [Compound 235, (2S,5S,8S,13R,16R)-16-benzyl-1-(4-chloro-2-(4-(2-((dimethylamino)methyl)-1-methyl-1H-imidazol-5-yl)phenoxy)benzyl)-8-(4-chlorobenzyl)-13-(hydroxymethyl)-5-(methoxymethyl)-2,7,14-trimethyl-1,4,7,11,14-pentaazacyclooctadecane-3,6,10,15,18-pentaone]	100.56	11.1
COC[C@@H]1NC(=O)[C@H](C)N(Cc2c(F)cc(F)cc2Oc2ccc(-c3cnc(CN(C)C)n3C)cc2)C(=O)C[C@@H](Cc2ccccc2)C(=O)N(C)[C@@H](C)CNC(=O)C[C@H](Cc2ccc(Cl)cc2)N(C)C1=O [Compound 236, (2S,5S,8S,13S,16R)-16-benzyl-8-(4-chlorobenzyl)-1-(2-(4-(2-((dimethylamino)methyl)-1-methyl-1H-imidazol-5-yl)phenoxy)-4,6-difluorobenzyl)-5-(methoxymethyl)-2,7,13,14-tetramethyl-1,4,7,11,14-pentaazacyclooctadecane-3,6,10,15,18-pentaone]	95.33	6.6
COC[C@@H]1NC(=O)[C@H](CC(=O)OC(C)(C)C)N(Cc2ccc(Cl)cc2Oc2ccc(-c3cnc(CN(C)C)n3C)cc2)C(=O)C[C@@H](Cc2ccccc2)C(=O)N(C)[C@H]2CCCC[C@@H]2NC(=O)C[C@H](Cc2ccc(Cl)cc2)N(C)C1=O [Compound 237, tert-butyl 2-((4S,7S,10S,14R,16aS,20aS)-14-benzyl-11-(4-chloro-2-(4-(2-((dimethylamino)methyl)-1-methyl-1H-imidazol-5-yl)phenoxy)benzyl)-4-(4-chlorobenzyl)-7-(methoxymethyl)-5,16-dimethyl-2,6,9,12,15-pentaoxodocosahydrobenzo[l][1,4,7,11,14]pentaazacyclooctadecin-10-yl)acetate]	102.97	1.4
COC[C@@H]1NC(=O)[C@H](C)N(Cc2ccc(Cl)cc2Oc2ccc(-c3cnc(CN(C)C)n3C)cc2)C(=O)C[C@@H](Cc2cccc(OC(F)F)c2)C(=O)N(C)[C@@H](C)CNC(=O)C[C@H](Cc2ccc(Cl)cc2)N(C)C1=O [Compound 238, (2S,5S,8S,13S,16R)-1-(4-chloro-2-(4-(2-((dimethylamino)methyl)-1-methyl-1H-imidazol-5-yl)phenoxy)benzyl)-8-(4-chlorobenzyl)-16-(3-(difluoromethoxy)benzyl)-5-(methoxymethyl)-2,7,13,14-tetramethyl-1,4,7,11,14-pentaazacyclooctadecane-3,6,10,15,18-pentaone]	104.90	2.5
COCCN(C)C(=O)C[C@H]1C(=O)N[C@@H](COC)C(=O)N(C)[C@@H](Cc2ccc(Cl)cc2)CC(=O)N[C@H]2CCCC[C@@H]2N(C)C(=O)[C@H](Cc2ccccc2)CC(=O)N1Cc1ccc(Cl)cc1Oc1ccc(-c2cnc(CN(C)C)n2C)cc1 [Compound 239, 2-((4S,7S,10S,14R,16aS,20aS)-14-benzyl-11-(4-chloro-2-(4-(2-((dimethylamino)methyl)-1-methyl-1H-imidazol-5-yl)phenoxy)benzyl)-4-(4-chlorobenzyl)-7-(methoxymethyl)-5,16-dimethyl-2,6,9,12,15-pentaoxodocosahydrobenzo[l][1,4,7,11,14]pentaazacyclooctadecin-10-yl)-N-(2-methoxyethyl)-N-methylacetamide]	106.17	1.3
COC[C@@H]1NC(=O)[C@H](C)N(Cc2ccc(C)cc2Oc2ccc(-c3cnc(CN(C)C)n3C)cc2)C(=O)C[C@@H](Cc2ccccc2)C(=O)N(C)[C@@H](C)CNC(=O)C[C@H](Cc2ccc(Cl)cc2)N(C)C1=O [Compound 240, (2S,5S,8S,13S,16R)-16-benzyl-8-(4-chlorobenzyl)-1-(2-(4-(2-((dimethylamino)methyl)-1-methyl-1H-imidazol-5-yl)phenoxy)-4-methylbenzyl)-5-(methoxymethyl)-2,7,13,14-tetramethyl-1,4,7,11,14-pentaazacyclooctadecane-3,6,10,15,18-pentaone]	99.28	0.9
COC[C@@H]1NC(=O)[C@H](C)N(Cc2ccc(Cl)cc2Oc2ccc(-c3cnc([C@H](C)N(C)C)n3C)cc2)C(=O)C[C@@H](Cc2ccccc2)C(=O)N(C)[C@H]2CCCC[C@@H]2NC(=O)C[C@H](Cc2ccc(Cl)cc2)N(C)C1=O [Compound 241, (4S,7S,10S,14R,16aS,20aS)-14-benzyl-11-(4-chloro-2-(4-(2-((S)-1-(dimethylamino)ethyl)-1-methyl-1H-imidazol-5-yl)phenoxy)benzyl)-4-(4-chlorobenzyl)-7-(methoxymethyl)-5,10,16-trimethylhexadecahydrobenzo[l][1,4,7,11,14]pentaazacyclooctadecine-2,6,9,12,15(3H)-pentaone]	72.66	247
COC[C@@H]1NC(=O)[C@H](C)N(Cc2ccc(Cl)cc2Oc2ccc(-c3cnc(C(C)O)n3C)cc2)C(=O)C[C@@H](Cc2ccccc2)C(=O)N(C)[C@H]2CCCC[C@@H]2NC(=O)C[C@H](Cc2ccc(Cl)cc2)N(C)C1=O (stereo partly drawn) [Compound 242, (4S,7S,10S,14R,16aS,20aS)-14-benzyl-11-(4-chloro-2-(4-(2-(1-hydroxyethyl)-1-methyl-1H-imidazol-5-yl)phenoxy)benzyl)-4-(4-chlorobenzyl)-7-(methoxymethyl)-5,10,16-trimethylhexadecahydrobenzo[l][1,4,7,11,14]pentaazacyclooctadecine-2,6,9,12,15(3H)-pentaone]	87.34	1.3
C[C@H]1C(=O)N[C@@H](CO)C(=O)N(C)[C@@H](Cc2ccc(Cl)cc2)CC(=O)N[C@H]2CCCC[C@@H]2N(C)C(=O)[C@H](Cc2ccccc2)CC(=O)N1Cc1ccc(Cl)cc1Oc1ccc(-c2cnc(CN(C)C)n2C)cc1 [Compound 243, (4S,7S,10S,14R,16aS,20aS)-14-benzyl-11-(4-chloro-2-(4-(2-((dimethylamino)methyl)-1-methyl-1H-imidazol-5-yl)phenoxy)benzyl)-4-(4-chlorobenzyl)-7-(hydroxymethyl)-5,10,16-trimethylhexadecahydrobenzo[l][1,4,7,11,14]pentaazacyclooctadecine-2,6,9,12,15(3H)-pentaone]	97.38	0.9
CCNC(=O)c1ncn(-c2ccc(Oc3cc(Cl)ccc3CN3C(=O)C[C@@H](Cc4ccccc4)C(=O)N(C)[C@@H](C)CNC(=O)C[C@H](Cc4ccc(Cl)cc4)N(C)C(=O)[C@H](COC)NC(=O)[C@@H]3C)cc2)c1C [Compound 244, 1-(4-(2-(((2S,5S,8S,13S,16R)-16-benzyl-8-(4-chlorobenzyl)-5-(methoxymethyl)-2,7,13,14-tetramethyl-3,6,10,15,18-pentaoxo-1,4,7,11,14-pentaazacyclooctadecan-1-yl)methyl)-5-chlorophenoxy)phenyl)-N-ethyl-5-methyl-1H-imidazole-4-carboxamide]	80.79	22.9
COC[C@@H]1NC(=O)[C@H](CCC(=O)O)N(Cc2ccc(Cl)cc2Oc2ccc(-c3cnc(CN(C)C)n3C)cc2)C(=O)C[C@@H](Cc2ccccc2)C(=O)N(C)[C@H]2CCCC[C@@H]2NC(=O)C[C@H](Cc2ccc(Cl)cc2)N(C)C1=O [Compound 245, 3-((4S,7S,10S,14R,16aS,20aS)-14-benzyl-11-(4-chloro-2-(4-(2-((dimethylamino)methyl)-1-methyl-1H-imidazol-5-yl)phenoxy)benzyl)-4-(4-chlorobenzyl)-7-(methoxymethyl)-5,16-dimethyl-2,6,9,12,15-pentaoxodocosahydrobenzo[l][1,4,7,11,14]pentaazacyclooctadecin-10-yl)propanoic acid]	104.03	1.3
COC[C@@H]1NC(=O)[C@H](C)N(Cc2ccc(Cl)cc2Oc2ccc(-c3cnc(CN(C)C)n3C)cc2)C(=O)C[C@@H](Cc2c(F)c(F)cc(F)c2F)C(=O)N(C)[C@@H](C)CNC(=O)C[C@H](Cc2ccc(Cl)cc2)N(C)C1=O [Compound 246, (2S,5S,8S,13S,16R)-1-(4-chloro-2-(4-(2-((dimethylamino)methyl)-1-methyl-1H-imidazol-5-yl)phenoxy)benzyl)-8-(4-chlorobenzyl)-5-(methoxymethyl)-2,7,13,14-tetramethyl-16-(2,3,5,6-tetrafluorobenzyl)-1,4,7,11,14-pentaazacyclooctadecane-3,6,10,15,18-pentaone]	103.97	2.4
COC[C@@H]1NC(=O)[C@H](C)N(Cc2ccc(Cl)cc2Oc2ccc(-c3cnc(CN(C)C)n3C)cc2)C(=O)C[C@@H](Cc2ccccc2)C(=O)N(C)[C@H]2C[C@H]2NC(=O)C[C@H](Cc2ccc(Cl)cc2)N(C)C1=O [Compound 247, (1R,5S,8S,11S,15R,18S)-15-benzyl-12-(4-chloro-2-(4-(2-((dimethylamino)methyl)-1-methyl-1H-imidazol-5-yl)phenoxy)benzyl)-5-(4-chlorobenzyl)-8-(methoxymethyl)-6,11,17-trimethyI-2,6,9,12,17-pentaazabicyclo[16.1.0]nonadecane-3,7,10,13,16-pentaone]	98.86	33.2
